Laboratory results published in patent US20250000872A1, “FORMULATIONS AND DOSING REGIMENS FOR RIP1 KINASE INHIBITORS FOR TREATING AUTOIMMUNE AND INFLAMMATORY DISEASES” (Eli Lilly and Company, priority 2023, published 2025).

How the values were obtained:
[1] = Phase I first-in-human study: safety, tolerability and PK of single and multiple doses in healthy volunteers; type: in vivo; details: for AUC(0-t): human, estimated from AUC0-∞ at single dose of 125 mg in phase 1 study Part 3
Method: The study was conducted in 3 parts: single-ascending doses (Part 1A), multiple-ascending doses (Part 2), and formulation assessment (Part 1B and Part 3).

[2] = Phase 1 open-label single-dose fixed-sequence study: solid dispersion oral suspension vs crystalline freebase tablet, healthy participants; type: in vivo, human; details: amorphous vs corresponding crystalline preparation
Text: Each participant received both formulations in 2 separate dosing periods.
The median tmax was longer for the tablet compared with the oral suspension. The geometric mean t1/2 was similar between formulations. […] Between-participant CV for AUC (0-tlast), AUC (0-∞), and Cmax was higher for the tablet compared with the oral suspension.

OATP2B1 = biological target: T1, OATP2B1 (Homo sapiens, UniProt O94956); experiment: In vitro drug-drug interaction studies: OATP2B1 transporter inhibition; type: in vitro ADME; details: based upon in vitro studies
T1 sequence (O94956 1-709): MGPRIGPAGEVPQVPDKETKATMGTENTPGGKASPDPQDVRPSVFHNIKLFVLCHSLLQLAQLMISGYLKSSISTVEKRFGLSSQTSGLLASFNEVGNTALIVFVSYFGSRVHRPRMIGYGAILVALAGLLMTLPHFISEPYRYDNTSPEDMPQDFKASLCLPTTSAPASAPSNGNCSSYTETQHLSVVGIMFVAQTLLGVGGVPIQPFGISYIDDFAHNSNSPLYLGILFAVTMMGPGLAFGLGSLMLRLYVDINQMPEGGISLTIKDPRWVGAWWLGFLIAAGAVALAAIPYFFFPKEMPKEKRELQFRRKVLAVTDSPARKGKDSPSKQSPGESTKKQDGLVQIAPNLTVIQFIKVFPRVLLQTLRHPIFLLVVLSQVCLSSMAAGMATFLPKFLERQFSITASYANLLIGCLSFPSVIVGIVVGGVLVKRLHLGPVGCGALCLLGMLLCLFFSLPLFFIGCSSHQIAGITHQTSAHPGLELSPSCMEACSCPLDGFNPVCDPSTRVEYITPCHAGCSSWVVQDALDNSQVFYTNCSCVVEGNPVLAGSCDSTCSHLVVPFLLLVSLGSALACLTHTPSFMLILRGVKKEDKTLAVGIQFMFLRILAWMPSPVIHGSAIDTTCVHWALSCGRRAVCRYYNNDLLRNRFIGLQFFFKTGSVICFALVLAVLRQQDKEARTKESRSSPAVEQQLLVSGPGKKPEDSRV

CYP2C8 = biological target: T2, CYP2C8 (Homo sapiens, UniProt P10632); experiment: In vitro drug-drug interaction studies: CYP2C8 inhibition; type: in vitro ADME; details: based upon in vitro studies
T2 sequence (P10632 1-490): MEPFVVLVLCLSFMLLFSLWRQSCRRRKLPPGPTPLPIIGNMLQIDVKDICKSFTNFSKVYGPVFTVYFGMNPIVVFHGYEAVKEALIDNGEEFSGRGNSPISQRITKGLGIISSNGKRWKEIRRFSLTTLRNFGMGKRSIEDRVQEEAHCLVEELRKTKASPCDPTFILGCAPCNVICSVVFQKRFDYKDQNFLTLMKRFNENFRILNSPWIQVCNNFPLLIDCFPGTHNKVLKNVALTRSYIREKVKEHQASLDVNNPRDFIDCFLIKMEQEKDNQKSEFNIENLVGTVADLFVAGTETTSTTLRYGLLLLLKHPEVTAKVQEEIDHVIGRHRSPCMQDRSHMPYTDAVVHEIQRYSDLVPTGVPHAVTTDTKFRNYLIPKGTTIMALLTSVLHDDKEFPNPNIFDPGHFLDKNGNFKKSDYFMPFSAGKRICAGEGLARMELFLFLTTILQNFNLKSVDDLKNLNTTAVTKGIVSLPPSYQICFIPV

OCT1 = biological target: T3, OCT1 (Homo sapiens, UniProt O15245); experiment: In vitro drug-drug interaction studies: OCT1 transporter inhibition; type: in vitro ADME; details: based upon in vitro studies
T3 sequence (O15245 1-554): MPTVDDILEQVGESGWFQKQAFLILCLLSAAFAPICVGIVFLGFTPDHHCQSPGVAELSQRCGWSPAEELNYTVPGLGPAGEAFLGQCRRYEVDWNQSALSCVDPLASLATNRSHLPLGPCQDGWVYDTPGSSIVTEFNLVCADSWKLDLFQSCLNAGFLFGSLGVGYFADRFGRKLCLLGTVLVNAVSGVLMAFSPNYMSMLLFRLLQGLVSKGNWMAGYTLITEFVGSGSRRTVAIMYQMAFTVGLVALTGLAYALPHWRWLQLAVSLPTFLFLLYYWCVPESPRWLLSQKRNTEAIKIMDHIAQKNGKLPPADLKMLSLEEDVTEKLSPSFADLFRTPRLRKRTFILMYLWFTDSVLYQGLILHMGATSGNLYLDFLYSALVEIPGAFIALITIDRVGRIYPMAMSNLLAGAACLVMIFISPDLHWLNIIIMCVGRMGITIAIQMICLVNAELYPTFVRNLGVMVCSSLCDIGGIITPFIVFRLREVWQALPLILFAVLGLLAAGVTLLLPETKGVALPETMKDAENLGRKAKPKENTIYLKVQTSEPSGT

CYP2C9 = CYP2C9 (Homo sapiens, UniProt P11712); experiment: In vitro drug-drug interaction studies: CYP2C9 inhibition; type: in vitro ADME; details: based upon in vitro studies
CYP2C9, sequence (P11712 whole entry): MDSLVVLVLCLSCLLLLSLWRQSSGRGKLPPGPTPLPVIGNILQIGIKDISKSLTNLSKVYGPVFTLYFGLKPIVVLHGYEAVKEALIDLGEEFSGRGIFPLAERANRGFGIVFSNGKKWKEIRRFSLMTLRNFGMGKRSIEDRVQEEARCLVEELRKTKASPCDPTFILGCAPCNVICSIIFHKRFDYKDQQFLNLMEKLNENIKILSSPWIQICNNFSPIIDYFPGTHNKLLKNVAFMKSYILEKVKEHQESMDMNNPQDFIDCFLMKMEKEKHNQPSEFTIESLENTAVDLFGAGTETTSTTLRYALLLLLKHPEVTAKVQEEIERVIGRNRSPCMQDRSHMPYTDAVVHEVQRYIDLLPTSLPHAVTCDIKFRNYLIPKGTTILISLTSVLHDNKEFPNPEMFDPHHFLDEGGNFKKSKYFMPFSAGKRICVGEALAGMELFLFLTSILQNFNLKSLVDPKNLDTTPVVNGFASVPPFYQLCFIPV

CYP3A = experiment: In vitro drug-drug interaction studies: CYP3A inhibition; type: in vitro ADME; details: based upon in vitro studies
[3] = Rat embryofetal development study; type: in vivo; details: female, rat, in vivo, po; plasma toxicokinetics on Gestational Day 17, 1000 mg/kg/day; read-out: AUC0-24 at rat EFD NOEL
rats [4] = experiment: Rat embryofetal development study; type: in vivo
[5] = 6-month repeat-dose toxicity study in rats; type: in vivo; details: rat, in vivo, po, 1000 mg/kg/day
rats [6] = experiment: 6-month repeat-dose toxicity study in rats; type: in vivo
[7] = AUC in animals/(predicted) AUC in humans

**Q.** For `CN1C(=O)[C@@H](NC(=O)c2n[nH]c(Cc3ccccc3)n2)COc2ccc(C#CC(C)(C)O)cc21` [Compound I, (S)-5-benzyl-N-(7-(3-hydroxy-3-methylbut-1-yn-1-yl)-5-methyl-4-oxo-2,3,4,5-tetrahydrobenzo[b][1,4]oxazepin-3-yl)-1H-1,2,4-triazole-3-carboxamide], which Exposure versus dose ([1]; dose range of 12 to 1000 mg) is on record?
**A.** Its Exposure versus dose is “increased in a proportional manner”.

**Q.** What about the AUC(0-t) ([1]; plasma, oral, 0.7 mg/kg/day, read-out: AUC0-24, human dose 50 mg) of the same molecule?
**A.** Its AUC(0-t) is 16 µg·h/mL.

**Q.** What about the AUC(0-t) ([1]; plasma, oral, 1.8 mg/kg/day, read-out: AUC0-24, human dose 125 mg) of the same molecule?
**A.** Its AUC(0-t) is 40.1 µg·h/mL.

**Q.** What about the half-life ([1]; plasma, oral, human subjects) of the same molecule?
**A.** The half-life was 13 to 15 h.

**Q.** And the “bioavailability, amorphous state (solid dispersion) over crystalline form” value [2]?
**A.** The value was “significantly improved”.

**Q.** What about the “inhibition of substrates of OATP2B1 transporter” value (OATP2B1) of the same molecule?
**A.** Its value is “may also inhibit”.

**Q.** What about the “inhibition of drugs metabolized by CYP2C8” value (CYP2C8) of the same molecule?
**A.** Its value is “may inhibit”.

**Q.** And the “inhibition of substrates of OCT1 transporter” value (OCT1)?
**A.** Its value is “may also inhibit”.

**Q.** What about the “inhibition of drugs metabolized by CYP2C9” value (CYP2C9) of the same molecule?
**A.** The value was “may inhibit”.

**Q.** And the “inhibition of drugs metabolized by CYP3A” value (CYP3A)?
**A.** The value was “may inhibit”.

**Q.** And the AUC(0-t) [3]?
**A.** The AUC(0-t) was 1120 µg·h/mL.

**Q.** What about the “Margin of Safety, rat EFD NOEL vs human 50 mg” value (rats [4]; [7]) of the same molecule?
**A.** The value was 70 X.

**Q.** And the “Margin of Safety, rat EFD NOEL vs human 125 mg” value (rats [4]; [7])?
**A.** Its value is 28 X.

**Q.** What about the “developmental and reproductive toxicology outcome, rats” value (rats [4]; concerns for women of childbearing potential) of the same molecule?
**A.** Its value is “did not reveal any concerns”.

**Q.** And the “Rat EFD NOEL dose” value (rats [4]; rat embryofetal development study)?
**A.** The value was 1000 mg/kg/day.

**Q.** What about the AUC(0-t) [5] of the same molecule?
**A.** The AUC(0-t) was 1080 µg·h/mL.

**Q.** And the “Margin of Safety, rat NOAEL vs human 50 mg” value (rats [6]; [7])?
**A.** The value was 67 X.

**Q.** And the “Margin of Safety, rat NOAEL vs human 125 mg” value (rats [6]; [7])?
**A.** Its value is 27 X.

**Q.** And the “toxicology findings in rats” value (rats [6]; toxicology studies up to 6 months)?
**A.** The value was “minimal effects”.
